In the kinase profiling compilation of Christmann-Franck et al. (2016):

Tests used:
PI4KA (human) = PI4KA (human) (UniProt P42356)
SRC (human) = SRC (human) (UniProt P12931)
CaMK1 (human) = CaMK1 (human) (UniProt Q14012)
PRKAA1 or PRKAA2 (rat) = settings: accession and sequence are those of the human protein
NEK6 (human) = NEK6 (human) (UniProt Q9HC98)
TBK1 (human) = TBK1 (human) (UniProt Q9UHD2)
IKBKB (human) = IKBKB (human) (UniProt O14920)
NEK2 (human) = NEK2 (human) (UniProt P51955)
PRKACA (human) = PRKACA (human) (UniProt P17612)
DYRK2 (human) = DYRK2 (human) (UniProt Q92630)
[1] = tested on: SGK1 (human), O00141 [S422D]
CHEK1 (human) = CHEK1 (human) (UniProt O14757)
CHEK1 (human), sequence (O14757 whole entry, looked up): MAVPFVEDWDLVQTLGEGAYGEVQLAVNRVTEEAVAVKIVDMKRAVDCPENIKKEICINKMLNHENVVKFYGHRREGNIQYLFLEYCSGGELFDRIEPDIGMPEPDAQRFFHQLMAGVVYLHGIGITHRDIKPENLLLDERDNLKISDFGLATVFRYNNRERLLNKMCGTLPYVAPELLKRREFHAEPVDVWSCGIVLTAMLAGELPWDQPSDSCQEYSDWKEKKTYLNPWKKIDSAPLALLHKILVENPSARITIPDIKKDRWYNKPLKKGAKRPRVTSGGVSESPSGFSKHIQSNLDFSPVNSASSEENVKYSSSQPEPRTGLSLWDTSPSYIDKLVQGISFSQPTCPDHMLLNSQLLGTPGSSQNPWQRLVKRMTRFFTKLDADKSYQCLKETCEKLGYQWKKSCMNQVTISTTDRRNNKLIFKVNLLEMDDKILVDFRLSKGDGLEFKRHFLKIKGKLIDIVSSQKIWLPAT

MAPK13 (human) = MAPK13 (human) (UniProt O15264)
PAK7 (human) = PAK7 (human) (UniProt Q9P286)
PAK7 (human), sequence (Q9P286 whole entry, looked up): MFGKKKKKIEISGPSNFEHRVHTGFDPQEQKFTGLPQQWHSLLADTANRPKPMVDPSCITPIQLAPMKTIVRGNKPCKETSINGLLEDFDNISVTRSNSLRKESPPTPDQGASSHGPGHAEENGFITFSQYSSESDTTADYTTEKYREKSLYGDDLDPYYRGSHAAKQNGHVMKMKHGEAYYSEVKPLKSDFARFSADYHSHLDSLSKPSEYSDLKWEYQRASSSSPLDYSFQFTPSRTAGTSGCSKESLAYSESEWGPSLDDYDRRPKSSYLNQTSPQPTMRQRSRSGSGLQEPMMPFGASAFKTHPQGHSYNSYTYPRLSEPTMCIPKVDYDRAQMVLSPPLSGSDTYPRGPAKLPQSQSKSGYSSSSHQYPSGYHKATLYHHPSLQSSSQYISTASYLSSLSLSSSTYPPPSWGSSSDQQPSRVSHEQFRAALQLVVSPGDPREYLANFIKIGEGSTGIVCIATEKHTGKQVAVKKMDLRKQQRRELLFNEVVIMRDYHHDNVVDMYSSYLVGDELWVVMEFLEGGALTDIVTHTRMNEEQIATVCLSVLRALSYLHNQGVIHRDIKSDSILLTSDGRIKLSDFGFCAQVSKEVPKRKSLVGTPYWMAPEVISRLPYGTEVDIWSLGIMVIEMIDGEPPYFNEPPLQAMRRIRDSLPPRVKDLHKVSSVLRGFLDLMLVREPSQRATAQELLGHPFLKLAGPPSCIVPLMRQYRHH

RPS6KA3 KD1 KD2 (human) = RPS6KA3 KD1 KD2 (human) (UniProt P51812)
RPS6KA3 KD1 KD2 (human), sequence (P51812 whole entry, looked up): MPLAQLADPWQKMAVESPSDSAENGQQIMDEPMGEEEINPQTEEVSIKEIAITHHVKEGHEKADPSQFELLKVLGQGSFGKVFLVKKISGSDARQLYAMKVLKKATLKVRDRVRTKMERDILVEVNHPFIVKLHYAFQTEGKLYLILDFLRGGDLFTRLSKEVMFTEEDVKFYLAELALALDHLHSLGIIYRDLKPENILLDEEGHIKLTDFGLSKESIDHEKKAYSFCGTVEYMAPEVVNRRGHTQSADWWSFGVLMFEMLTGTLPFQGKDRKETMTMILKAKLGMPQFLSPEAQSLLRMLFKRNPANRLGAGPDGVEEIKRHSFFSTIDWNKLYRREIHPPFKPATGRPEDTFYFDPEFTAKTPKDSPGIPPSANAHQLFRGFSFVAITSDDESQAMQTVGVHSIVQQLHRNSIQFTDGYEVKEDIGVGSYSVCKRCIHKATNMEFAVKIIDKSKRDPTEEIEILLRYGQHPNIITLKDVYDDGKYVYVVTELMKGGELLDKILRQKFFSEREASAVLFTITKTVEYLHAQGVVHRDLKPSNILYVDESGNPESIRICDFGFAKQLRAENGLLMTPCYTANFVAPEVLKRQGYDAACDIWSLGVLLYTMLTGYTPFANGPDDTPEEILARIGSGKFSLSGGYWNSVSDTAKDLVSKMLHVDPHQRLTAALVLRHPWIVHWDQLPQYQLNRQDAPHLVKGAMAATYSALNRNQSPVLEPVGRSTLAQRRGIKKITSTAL

MELK (human) = MELK (human) (UniProt Q14680)
IGF1R (human) = IGF1R (human) (UniProt P08069)
BTK (human) = BTK (human) (UniProt Q06187)
GSK3B (human) = GSK3B (human) (UniProt P49841)
CDK2 CCNA2 (human) = CDK2 CCNA2 (human) (UniProt P20248+P24941)
CHEK2 (human) = CHEK2 (human) (UniProt O96017)
MKNK2 (human) = MKNK2 (human) (UniProt Q9HBH9)
MAPK3 (human) = MAPK3 (human) (UniProt P27361)
MAPK3 (human), sequence (P27361 whole entry, looked up): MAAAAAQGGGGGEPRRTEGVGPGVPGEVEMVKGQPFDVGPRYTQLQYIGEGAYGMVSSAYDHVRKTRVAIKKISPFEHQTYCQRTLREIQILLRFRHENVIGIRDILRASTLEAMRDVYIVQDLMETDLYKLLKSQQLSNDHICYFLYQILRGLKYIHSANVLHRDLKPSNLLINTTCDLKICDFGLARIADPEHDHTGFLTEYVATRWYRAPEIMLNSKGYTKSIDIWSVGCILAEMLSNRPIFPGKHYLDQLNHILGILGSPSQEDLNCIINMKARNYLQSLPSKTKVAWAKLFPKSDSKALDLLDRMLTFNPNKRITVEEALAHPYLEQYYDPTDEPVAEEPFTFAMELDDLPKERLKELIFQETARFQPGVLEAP

INSRR (human) = INSRR (human) (UniProt P14616)
INSRR (human), sequence (P14616 whole entry, looked up): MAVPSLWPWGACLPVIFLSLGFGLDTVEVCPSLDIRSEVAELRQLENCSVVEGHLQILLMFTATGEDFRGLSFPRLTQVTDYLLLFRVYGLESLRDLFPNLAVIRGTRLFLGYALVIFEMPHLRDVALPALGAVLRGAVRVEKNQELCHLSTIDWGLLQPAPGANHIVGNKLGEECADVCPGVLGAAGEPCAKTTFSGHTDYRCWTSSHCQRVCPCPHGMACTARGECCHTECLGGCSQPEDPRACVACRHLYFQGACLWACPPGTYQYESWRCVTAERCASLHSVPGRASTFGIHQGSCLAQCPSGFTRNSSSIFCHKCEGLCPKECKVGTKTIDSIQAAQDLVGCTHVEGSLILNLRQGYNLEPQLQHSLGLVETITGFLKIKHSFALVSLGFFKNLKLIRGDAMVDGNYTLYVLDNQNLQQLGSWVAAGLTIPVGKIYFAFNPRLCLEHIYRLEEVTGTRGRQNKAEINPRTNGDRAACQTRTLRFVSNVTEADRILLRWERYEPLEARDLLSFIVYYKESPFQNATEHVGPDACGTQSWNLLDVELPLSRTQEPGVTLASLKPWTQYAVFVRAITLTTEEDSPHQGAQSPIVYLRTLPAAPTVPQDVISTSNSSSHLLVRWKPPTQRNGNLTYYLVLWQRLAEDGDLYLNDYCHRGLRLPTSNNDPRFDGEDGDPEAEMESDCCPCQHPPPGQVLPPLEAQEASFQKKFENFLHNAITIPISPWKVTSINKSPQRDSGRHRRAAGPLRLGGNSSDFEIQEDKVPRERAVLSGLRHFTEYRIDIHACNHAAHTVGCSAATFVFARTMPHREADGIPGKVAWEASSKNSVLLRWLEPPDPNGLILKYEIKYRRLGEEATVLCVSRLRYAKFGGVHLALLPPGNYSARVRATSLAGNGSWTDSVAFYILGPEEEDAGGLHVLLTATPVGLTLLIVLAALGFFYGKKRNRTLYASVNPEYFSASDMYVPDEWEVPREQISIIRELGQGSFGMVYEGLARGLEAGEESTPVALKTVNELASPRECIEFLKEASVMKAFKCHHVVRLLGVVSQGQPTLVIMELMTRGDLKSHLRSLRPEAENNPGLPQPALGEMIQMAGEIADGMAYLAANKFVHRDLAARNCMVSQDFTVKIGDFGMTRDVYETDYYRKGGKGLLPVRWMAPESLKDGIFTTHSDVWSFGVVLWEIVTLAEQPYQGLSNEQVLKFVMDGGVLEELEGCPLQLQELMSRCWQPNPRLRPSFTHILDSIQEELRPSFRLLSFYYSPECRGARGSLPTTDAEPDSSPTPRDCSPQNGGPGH

MAPKAPK5 (human) = MAPKAPK5 (human) (UniProt Q8IW41)
MAPKAPK5 (human), sequence (Q8IW41 whole entry, looked up): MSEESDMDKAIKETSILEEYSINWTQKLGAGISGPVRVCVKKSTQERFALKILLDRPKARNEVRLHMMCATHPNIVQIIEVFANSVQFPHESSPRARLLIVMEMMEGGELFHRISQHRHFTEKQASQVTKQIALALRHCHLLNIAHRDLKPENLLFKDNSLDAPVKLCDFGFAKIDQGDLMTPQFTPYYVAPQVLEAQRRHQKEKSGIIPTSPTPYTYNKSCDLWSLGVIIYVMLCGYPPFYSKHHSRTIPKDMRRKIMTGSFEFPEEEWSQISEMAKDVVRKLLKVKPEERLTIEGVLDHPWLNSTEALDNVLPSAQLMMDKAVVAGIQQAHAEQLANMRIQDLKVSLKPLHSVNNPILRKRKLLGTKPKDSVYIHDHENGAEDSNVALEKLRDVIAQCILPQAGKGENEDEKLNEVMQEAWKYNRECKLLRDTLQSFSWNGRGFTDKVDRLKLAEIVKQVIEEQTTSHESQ

PIM2 (human) = PIM2 (human) (UniProt Q9P1W9)
AURKB (human) = AURKB (human) (UniProt Q96GD4)
AURKB (human), sequence (Q96GD4 whole entry, looked up): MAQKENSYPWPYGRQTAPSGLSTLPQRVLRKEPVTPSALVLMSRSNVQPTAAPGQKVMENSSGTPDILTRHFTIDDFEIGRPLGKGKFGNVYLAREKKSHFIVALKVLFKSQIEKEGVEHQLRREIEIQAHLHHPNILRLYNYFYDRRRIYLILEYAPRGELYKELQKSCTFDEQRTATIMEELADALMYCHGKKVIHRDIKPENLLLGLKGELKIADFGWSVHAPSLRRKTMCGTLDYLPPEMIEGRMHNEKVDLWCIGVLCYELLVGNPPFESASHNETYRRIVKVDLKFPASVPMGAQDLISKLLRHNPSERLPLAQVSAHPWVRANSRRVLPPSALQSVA

HIPK2 (human) = HIPK2 (human) (UniProt Q9H2X6)
MST4 (human) = MST4 (human) (UniProt Q9P289)
SYK (human) = SYK (human) (UniProt P43405)
PIK3C3 (human) = PIK3C3 (human) (UniProt Q8NEB9)
PIK3C2A (human) = PIK3C2A (human) (UniProt O00443)
PI4KB (human) = PI4KB (human) (UniProt Q9UBF8)
PIK3C2B (human) = PIK3C2B (human) (UniProt O00750)

SRC (human), sequence (P12931 whole entry, looked up): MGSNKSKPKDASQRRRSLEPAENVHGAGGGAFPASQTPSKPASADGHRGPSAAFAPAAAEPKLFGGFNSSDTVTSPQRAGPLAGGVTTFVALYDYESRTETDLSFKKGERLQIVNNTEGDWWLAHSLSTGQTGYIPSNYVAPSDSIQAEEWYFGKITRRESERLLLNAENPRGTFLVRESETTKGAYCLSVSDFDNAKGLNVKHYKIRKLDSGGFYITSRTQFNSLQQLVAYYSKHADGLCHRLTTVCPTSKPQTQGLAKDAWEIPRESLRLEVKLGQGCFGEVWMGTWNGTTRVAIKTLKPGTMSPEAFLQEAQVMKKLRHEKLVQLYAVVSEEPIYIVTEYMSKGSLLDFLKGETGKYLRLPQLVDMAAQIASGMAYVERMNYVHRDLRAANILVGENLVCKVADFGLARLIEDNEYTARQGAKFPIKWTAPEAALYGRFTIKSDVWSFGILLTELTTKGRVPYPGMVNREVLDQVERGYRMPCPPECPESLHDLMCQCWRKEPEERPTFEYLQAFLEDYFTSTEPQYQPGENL

CCC(=O)N1CCN(c2ccc(-n3c(=O)ccc4cnc5ccc(-c6cnc7ccccc7c6)cc5c43)cc2C(F)(F)F)CC1
IC50 (PI4KA (human)): > 10 µM | per cent of control (SRC (human); compound 1.0 µM): 60% | per cent of control (SRC (human); compound 10.0 µM): 52% | per cent of control (CaMK1 (human); compound 1.0 µM): 104% | per cent of control (CaMK1 (human); compound 10.0 µM): 77% | per cent of control (PRKAA1 or PRKAA2 (rat); compound 1.0 µM): 78% | per cent of control (PRKAA1 or PRKAA2 (rat); compound 10.0 µM): 93% | per cent of control (NEK6 (human); compound 1.0 µM): 100% | per cent of control (TBK1 (human); compound 1.0 µM): 96% | per cent of control (TBK1 (human); compound 10.0 µM): 87% | per cent of control (IKBKB (human); compound 1.0 µM): 109% | per cent of control (IKBKB (human); compound 10.0 µM): 63% | per cent of control (NEK2 (human); compound 1.0 µM): 88% | per cent of control (NEK2 (human); compound 10.0 µM): 99% | per cent of control (PRKACA (human); compound 1.0 µM): 106% | per cent of control (PRKACA (human); compound 10.0 µM): 96% | per cent of control (DYRK2 (human); compound 1.0 µM): 99% | per cent of control (DYRK2 (human); compound 10.0 µM): 99% | per cent of control ([1]; compound 1.0 µM): 79% | per cent of control ([1]; compound 10.0 µM): 60% | per cent of control (CHEK1 (human); compound 1.0 µM): 106% | per cent of control (CHEK1 (human); compound 10.0 µM): 125% | per cent of control (MAPK13 (human); compound 1.0 µM): 106% | per cent of control (MAPK13 (human); compound 10.0 µM): 97% | per cent of control (PAK7 (human); compound 10.0 µM): 61% | per cent of control (RPS6KA3 KD1 KD2 (human); compound 1.0 µM): 96% | per cent of control (RPS6KA3 KD1 KD2 (human); compound 10.0 µM): 81% | per cent of control (MELK (human); compound 1.0 µM): 63% | per cent of control (MELK (human); compound 10.0 µM): 17% | per cent of control (IGF1R (human); compound 1.0 µM): 100% | per cent of control (IGF1R (human); compound 10.0 µM): 93% | per cent of control (BTK (human); compound 1.0 µM): 104% | per cent of control (BTK (human); compound 10.0 µM): 56% | per cent of control (GSK3B (human); compound 1.0 µM): 79% | per cent of control (GSK3B (human); compound 10.0 µM): 49% | per cent of control (CDK2 CCNA2 (human); compound 1.0 µM): 108% | per cent of control (CDK2 CCNA2 (human); compound 10.0 µM): 77% | per cent of control (CHEK2 (human); compound 1.0 µM): 90% | per cent of control (CHEK2 (human); compound 10.0 µM): 83% | per cent of control (MKNK2 (human); compound 1.0 µM): 112% | per cent of control (MKNK2 (human); compound 10.0 µM): 96% | per cent of control (MAPK3 (human); compound 1.0 µM): 99% | per cent of control (MAPK3 (human); compound 10.0 µM): 96% | per cent of control (INSRR (human); compound 10.0 µM): 73% | per cent of control (MAPKAPK5 (human); compound 1.0 µM): 118% | per cent of control (MAPKAPK5 (human); compound 10.0 µM): 49% | per cent of control (PIM2 (human); compound 1.0 µM): 86% | per cent of control (PIM2 (human); compound 10.0 µM): 96% | per cent of control (AURKB (human); compound 1.0 µM): 107% | per cent of control (AURKB (human); compound 10.0 µM): 90% | per cent of control (HIPK2 (human); compound 1.0 µM): 96% | per cent of control (HIPK2 (human); compound 10.0 µM): 88% | per cent of control (MST4 (human); compound 1.0 µM): 96% | per cent of control (MST4 (human); compound 10.0 µM): 89% | per cent of control (SYK (human); compound 1.0 µM): 131% | per cent of control (SYK (human); compound 10.0 µM): 68%

COc1ccc(-c2ccc3c(N4CCOCC4)nc(N4C[C@@H](C)O[C@@H](C)C4)nc3n2)cc1CO
IC50 (PI4KA (human)): > 10 µM | IC50 (PIK3C3 (human)): > 10 µM | IC50 (PIK3C2A (human)): > 10 µM | IC50 (PI4KB (human)): > 10 µM | IC50 (PIK3C2B (human)): > 10 µM | per cent of control (SRC (human); compound 10.0 µM): 86% | per cent of control (CaMK1 (human); compound 1.0 µM): 96% | per cent of control (CaMK1 (human); compound 10.0 µM): 101% | per cent of control (PRKAA1 or PRKAA2 (rat); compound 1.0 µM): 97% | per cent of control (PRKAA1 or PRKAA2 (rat); compound 10.0 µM): 106% | per cent of control (NEK6 (human); compound 1.0 µM): 74% | per cent of control (NEK6 (human); compound 10.0 µM): 83% | per cent of control (TBK1 (human); compound 1.0 µM): 97% | per cent of control (TBK1 (human); compound 10.0 µM): 89% | per cent of control (IKBKB (human); compound 1.0 µM): 104% | per cent of control (IKBKB (human); compound 10.0 µM): 89% | per cent of control (NEK2 (human); compound 1.0 µM): 92% | per cent of control (NEK2 (human); compound 10.0 µM): 86% | per cent of control (PRKACA (human); compound 1.0 µM): 115% | per cent of control (PRKACA (human); compound 10.0 µM): 85% | per cent of control (DYRK2 (human); compound 1.0 µM): 92% | per cent of control (DYRK2 (human); compound 10.0 µM): 96% | per cent of control ([1]; compound 1.0 µM): 76% | per cent of control ([1]; compound 10.0 µM): 64% | per cent of control (CHEK1 (human); compound 1.0 µM): 87% | per cent of control (CHEK1 (human); compound 10.0 µM): 86% | per cent of control (MAPK13 (human); compound 1.0 µM): 72% | per cent of control (MAPK13 (human); compound 10.0 µM): 87% | per cent of control (PAK7 (human); compound 1.0 µM): 101% | per cent of control (PAK7 (human); compound 10.0 µM): 81% | per cent of control (RPS6KA3 KD1 KD2 (human); compound 1.0 µM): 103% | per cent of control (RPS6KA3 KD1 KD2 (human); compound 10.0 µM): 104% | per cent of control (MELK (human); compound 1.0 µM): 91% | per cent of control (MELK (human); compound 10.0 µM): 72% | per cent of control (IGF1R (human); compound 1.0 µM): 117% | per cent of control (IGF1R (human); compound 10.0 µM): 89% | per cent of control (BTK (human); compound 1.0 µM): 85% | per cent of control (BTK (human); compound 10.0 µM): 81% | per cent of control (GSK3B (human); compound 1.0 µM): 95% | per cent of control (GSK3B (human); compound 10.0 µM): 91% | per cent of control (CDK2 CCNA2 (human); compound 1.0 µM): 89% | per cent of control (CDK2 CCNA2 (human); compound 10.0 µM): 90% | per cent of control (MKNK2 (human); compound 1.0 µM): 87% | per cent of control (MKNK2 (human); compound 10.0 µM): 92% | per cent of control (MAPK3 (human); compound 1.0 µM): 102% | per cent of control (MAPK3 (human); compound 10.0 µM): 87% | per cent of control (INSRR (human); compound 1.0 µM): 105% | per cent of control (INSRR (human); compound 10.0 µM): 71% | per cent of control (MAPKAPK5 (human); compound 1.0 µM): 67% | per cent of control (MAPKAPK5 (human); compound 10.0 µM): 87% | per cent of control (PIM2 (human); compound 1.0 µM): 86% | per cent of control (PIM2 (human); compound 10.0 µM): 78% | per cent of control (AURKB (human); compound 10.0 µM): 86% | per cent of control (HIPK2 (human); compound 1.0 µM): 89% | per cent of control (HIPK2 (human); compound 10.0 µM): 89% | per cent of control (MST4 (human); compound 1.0 µM): 87% | per cent of control (MST4 (human); compound 10.0 µM): 86% | per cent of control (SYK (human); compound 1.0 µM): 88% | per cent of control (SYK (human); compound 10.0 µM): 83%
